{"source": "patent US8324166B2", "about": "“Neuroprotection using NAP-like and SAL-like peptide mimetics” (Ramot at Tel-Aviv University, Ltd., priority 2007, dated 2012)", "key": {"[1]": {"test_system": "cerebral cortical astrocytes intoxicated with ZnCl2", "assay": "MTS assay: survival of astrocytes following intoxication with ZnCl2", "assay_type": "cell-based, mice", "description": "Cell cultures were prepared as previously described (McCarthy KD, de Vellis J., J. Cell Biol., 85:890-902 (1980); Gozes I et al., J. Pharmacol. Exp. Ther., 257:959-66 (1991)). Newborn mice (Harlan Biotech Israel Ltd., Rehovot, Israel) were sacrificed by decapitation and the brain was removed. The cortex was dissected and meninges were removed. The tissue was minced with scissors and placed in Hank's balanced salts solution X1 (HBSS, Biological Industries, Beit Haemek, Israel), 15 mM HEPES Buffer pH 7.3 (Biological Industries, Beit Haemek, Israel) and 0.25% trypsin (Biological Industries, Beit Haemek, Israel) in an incubator at 37° C. 10% CO2 for 20 minutes. The cells were then placed in 8 ml of solution D1 containing 10% heat inactivated fetal calf serum (Biological Industries, Beit Haemek, Israel), 0.1% gentamycin sulphate solution (Biological Industries, Beit Haemek, Israel) and 0.1% penicillin-streptomycin-nystatin solution (Biological Industries, Beit Haemek, Israel) in Dulbecco's modified Eagle's medium (DMEM, Sigma, Rehovot, Israel). The cells were allowed to settle, and were then transferred to a new tube containing 2.5 ml of D1 and triturated using a Pasteur pipette. The process was repeated twice more. Once all the cells were suspended, cell density was determined using a hemocytometer (Neubauer improved, Germany) and 1×10^6 cells/15 ml D1 were inoculated into each 75 cm^2 flask (Corning, Corning, N.Y., USA). Cells were incubated at 37° C. 10% CO2. The medium was changed after 24 hours and cells were grown until confluent (one week).\nThe flasks containing the cerebral cortical astrocytes were shaken to dislodge residual neurons and oligodendrocytes that may be present. Flasks were then washed with 10 ml cold HBSSx1, HEPES15 mM. 5 ml versene-trypsin solution (BioLab, Jerusalem, Israel) was added to each flask and the flasks were incubated at room temperature for 5 minutes to remove astrocytes. The flasks were then shaken to dislodge the cells. The versene-trypsin solution was neutralized with 5 ml D1. The cell suspension was collected and centrifuged at 100 g for 10 minutes. The supernatant was removed and the cells resuspended in D1. The cells were plated in 96 well plates (Corning, Corning, N.Y., USA) (each flask to 2 plates) and incubated until confluent at 37° C. 10% CO2.\nThe survival of astrocytes following intoxication with ZnCl2 was tested using the MTS assay. One week after sub-culturing the astrocytes into 96-well plates, the astrocyte growth medium was aspirated and fresh medium containing 200μM ZnCl2 and ascending concentrations of NATLSHIHQ (SEQ ID NO:4) or STPTAIPQ (SEQ ID NO:6)(concentration range: 10^−16-10^−7M) was added to the cells. The cells were incubated for 4 hours in 10% CO2 at 37°C., followed by an MTS assay using Celltiter 96 Aqueous non-radioactive cell proliferation assay (Promega, Madison, WI, USA) which was performed according to the manufacturer's instructions and read in an ELISA plate reader at 490nm."}, "[2]": {"biological_target": "VQIVYK (peptide derived from third microtubule binding repeat of tau) (Homo sapiens, UniProt P10636)", "assay": "In vitro VQIVYK (tau-like) aggregation assay, Thioflavin S", "assay_type": "biochemical", "conditions": "peptides 10^−17 M -10^−9 M; 100 μM VQIVYK, polyglutamate 250 μM, MOPS pH 6.5, 7 days; compared with NAP", "description": "VQIVYK aggregation: Tau is a highly soluble protein. The unfolded protein lacks a defined 3D structure. Its main role is stabilization of microtubules in neuronal axons. Tau contains three or four microtubule binding repeats. ^306VQIVYK^311 is a peptide derived from the beginning of the third microtubule binding repeat of tau, which is present in all tau variants.\nIn vitro aggregation assay was performed in the presence of polyglutamic acid (or heparin), VQIVYK aggregates were further detected by Thioflavin S (excitation 485 nm and emission 535) with emission intensity greatly increasing.\nFirst, different concentrations of polyglutamic acid (0,100 μM, 250 μM, 400 μM) VQIVYK and either […] (NH4Ac) 50 mM pH 6.5 or MOPS 20 mM pH 6.5 and Thioflavin S 5 μM were mixed together and incubated at room temperature. The extent of aggregation was read at excitation 485 nm and emission 535 nm using the infinite 200 system with the Magellan program.\nIn order to avoid reading self peptide aggregation as VQIVYK aggregation, for each peptide concentration, the fluorescence of the peptide solution without VQIVYK was subtracted from the fluorescence of each peptide concentration containing VQIVYK."}, "[3]": {"test_system": "rTg(tauP301L)4510 mouse (Tau-Tg)", "assay": "Brain-Body weight ratio in Tau transgenic mice", "assay_type": "in vivo", "description": "The experiment included three groups: Tau-Tg female mice, 10-month-old, treated by intranasal administration of NAT 2 μg/5 μl/mouse/day (n=5) or vehicle (SW/mouse/day) (n=6), and as control, non-Tg female littermates treated by vehicle (SW/mouse/day) (n=7).\nTreatment started at 9 months of age and continued daily for a period of 5 weeks. At each test NAT was applied 1 h before the test begun.\nAll mice were weighed at the beginning and end of the experiment and whole brain weight was measured before the brain dissection.\nAll mice were weighed before first drug application and again before the dissection (while still alive). […] Whole brain was weighed before the brain sections were separated and no significant statistical differences between the groups were found. However, Brain-Body weight ratio may be used to measure brain mass decrease possibly indicating neuronal degradation (Bassan et al., (2009) J Matern Fetal Neonatal Med, 1-6)."}}, "note": "Where “and” joins values, the source holds several entries; their conditions need not be identical. Equal entries are not always repeated. Entries after “also recorded” stand apart in the source; their conditions may differ."}
{"sequence": "NATLSIHQ (synthetic NAP-like peptide)", "values": [{"measurement": "effective concentrations on astrocyte survival: Astrocytes (200 μM ZnCl2)", "setting": "[1]; MTS assay, 4 hours, tested 10^−16-10^−7M, significance vs negative control in cell", "result": "10^−12 M and 10^−8 M and 10^−7 (p < 0.0005) M and 10^−10 (p < 0.05) M"}, {"measurement": "activity in neuroprotection assay", "setting": "[1]; astrocytes, ZnCl2", "result": "active"}, {"measurement": "efficacy compared between peptides", "setting": "[1]; survival of astrocytes", "result": "greater than that of STPTAIPQ"}, {"measurement": "inhibition of VQIVYK (tau) aggregation", "setting": "[2]", "result": "superior to NAP; also recorded: superior effect than NAPVSIPQ"}, {"measurement": "protection from neurodegeneration (Brain-Body weight ratio)", "setting": "[3]; TAU-Tg mice, intranasal NAT, listed as NAT", "result": "protected the brain from neurodegeneration; also recorded: protective effect"}, {"measurement": "Brain-Body weight ratio", "setting": "[3]; TAU-Tg+NAT, intranasal daily 5 weeks, mean and S.E., p=0.030 vs vehicle treated TAU-Tg", "result": "0.0148+0.0009"}]}
